Entries after “also recorded” stand apart in the source; their conditions may differ. Read-outs that look alike come from different tables or passages of the source. Where a SMILES comes first, the peptide text is derived from it. Where no end group is shown, it is not given here.
Columns and labels:
[1] = test system: intact rat ventricular cardiomyocytes; format: cell-based; conditions: not told
Excerpt: Equivalent bioactivity of native human S100A1 protein and the 20-mer C-terminal peptide was shown by the inventors in chemically permeabilized cardiac and skeletal muscle cell preparations enabling intracellular access and regulation of RyR2 and RyR1 function. FIG. 4 depicts a similar intracellular binding pattern for rhodamine-labeled recombinant human S100A1 protein (10415 Mw) (FIG. 4A/B) and the 20-mer FITC-labeled synthetic S100A1 C-terminal peptide (2258 Mw) (FIG. 4C/D).
S100A1ct6/11 refers to the peptide D-K-D-D-P-P-Y-V-V-L-V-A-A-L-T-V-A (SEQ ID NO: 372), wherein the sequence D-K-D-D-P-P (SEQ ID NO: 354) is a hydrophilic motif and the sequence Y-V-V-L-V-A-A-L-T-V-A (SEQ ID NO: 390) are amino acids 75 to 85 of the human S100A1 protein.
FITC-labeled S100A1ct6/11 was incubated with intact rat ventricular cardiomyocytes for 15 minutes before the cells were monitored using confocal laser scanning microscopy. Endogenous S100A1 protein was stained using a conventional immunofluorescence protocol.

[2] = test system: isolated rat ventricular cardiomyocytes; format: cell-based; conditions: for effect on calcium transient amplitudes: field-stimulated (1 Hz) isolated rat ventricular cardiomyocytes, FIG. 25; for inotropic effect (calcium transients): basal conditions, intact field-stimulated cardiomyocytes; for inotropic effect (calcium transients) under βAR stimulation: β-AR stimulated, 10^−9 M Isoproterenol
[3] = test system: permeabilized cardiomyocytes; experiment: Ca2+-spark frequency in β-escin permeabilized cardiomyocytes; format: cell-based, rabbit
Procedure: Adult ventricular rabbit cardiomyocytes were isolated from four different animals as previously described (Loughrey C. M. et al., 2004, J. Physiol. 556:919-934) and permeabilized using β-escin (0.1 mg/ml). The permeabilized cells were incubated for 1 minute with rhodamine-labeled human S100A1 protein (0.1 μM) or FITC-labeled S100A1 C-terminal 20-mer peptide (0.1 μM) fused to a hydrophilic linker (amino acids 75 to 94 of human S100A1 fused to D-K-D-D-P-P (SEQ ID NO: 354)). Cells were monitored using a Bio-Rad 2000 laser scanning confocal microscope (LSCM). A striated staining pattern can be observed that resembles the ryanodine staining pattern (FIG. 4).
Isolated cardiomyocytes were perfused with a mock intracellular solution and permeabilized using β-escin (0.1 mg/ml). Fluo-3 free acid (10 μM) present in the perfusing solution was excited at 488 nm (Kr-laser) and measured at >515 nm applying epifluorescence optics of an inverted microscope with a ×60-1.2 NA water-immersion objective lens. Fluorescence was acquired in line scan mode at 2 ms line^−1; pixel dimension was 0.3 μm (512 pixels scan^−1; zoom=1.4). The scanning laser line orientated parallel with the long axis and placed approximately equidistant between the outer edge of the cell and the nucleus/nuclei, to ensure the nuclear area was not included in the scan line. To enable this trace to be converted to free calcium concentration ([Ca^2+]) a series of calibration solutions were used at the end of each Ca^2+-spark measurement period incorporating 10 mM EGTA. In all experiments concerning Ca^2+-sparks, the [Ca^2+] in the test solution was 145-160 nM. Ca^2+-sparks recorded in Fluo-3-containing solutions were quantified using an automated detection and measurement algorithm. All Ca^2+-spark measurements were made within 7-8 min of cell permeabilization. This time was standardized to minimize loss of soluble proteins. S100A1 protein or S100A1-ct peptide was applied in mock solution using a gravity-fed perfusion system. […]

[4] = test system: permeabilized EDL murine skeletal muscle fibers; experiment: Isometric twitch force in permeabilized skeletal muscle fibers; format: cell-based, mouse
Procedure: Muscle Fiber Preparation and Experimental Solutions. All of the animals were handled according to the guidelines of the animal care committee of the University of Heidelberg. Male BALB/c mice (3-6-months-old) were sacrificed by an overdose of carbon dioxide, and muscle fiber preparation was carried out as previously described (Fink R. H. and Stephenson D. G., 1987, Pflugers Arch. Eur. J. Physiol. 409:374-380; Makabe M. et al., 1996, Pflugers Arch. Eur. J. Physiol. 432: 717-726). Either EDL (M. ext. dig. longum) or Soleus was isolated, and a small fiber bundle containing two to four single fibers (between 80 and 150 μm in diameter and 3-4-mm-long) was dissected in paraffin oil. […] The free ion concentrations were calculated with the computer program REACT (version 2.0) from G. L. Smith (Glasgow, Scotland). […]
Muscle fibers were skinned for 5 min in skinning solution while the sarcomere length was adjusted to 2.6±0.1 μm using the diffraction pattern of a helium-neon laser. […] Maximum force was measured in the high activating solution at pCa 4.28 and 5 mM caffeine. […] Several control transients were recorded before the fiber was exposed to the S100A1 protein or the S100A1 peptide mixture (N/H/C) or the C-terminal 20-mer alone, and the experiment was repeated as outlined above. […] The correlation coefficients were calculated to determine the accuracy of the fit. […]

[5] = test system: adult intact cardiomyocytes; experiment: Calcium homeostasis in adult intact cardiomyocytes; format: cell-based
skeletal muscle fibers = experiment: Calcium homeostasis in intact skeletal muscle fibers; format: cell-based

`CC(C)C[C@H](NC(=O)[C@H](C)NC(=O)[C@H](C)NC(=O)[C@@H](NC(=O)[C@H](CC(C)C)NC(=O)[C@@H](NC(=O)[C@@H](NC(=O)[C@@H](N)Cc1ccc(O)cc1)C(C)C)C(C)C)C(C)C)C(=O)N[C@H](C(=O)N[C@H](C(=O)N[C@@H](C)C(=O)N[C@@H](CS)C(=O)N[C@@H](CC(N)=O)C(=O)N[C@@H](CC(N)=O)C(=O)N[C@@H](Cc1ccccc1)C(=O)N[C@@H](Cc1ccccc1)C(=O)N[C@@H](Cc1c[nH]c2ccccc12)C(=O)N[C@@H](CCC(=O)O)C(=O)N[C@@H](CC(N)=O)C(=O)N[C@@H](CO)C(=O)O)C(C)C)[C@@H](C)O` [20-mer S100A1 C-terminal peptide, YVVLVAALTVACNNFFWENS, reference compound] (H-YVVLVAALTVACNNFFWENS-OH; N-terminus and C-terminus assumed) was tested, and the “ability to permeate the cell membrane of intact cardiomyocytes” value [1] was “cell-impermeable”.

`CC(C)C[C@H](NC(=O)[C@H](C)NC(=O)[C@H](C)NC(=O)[C@@H](NC(=O)[C@H](CC(C)C)NC(=O)[C@@H](NC(=O)[C@@H](NC(=O)[C@H](Cc1ccc(O)cc1)NC(=O)[C@@H]1CCCN1C(=O)[C@@H]1CCCN1C(=O)[C@H](CC(=O)O)NC(=O)[C@H](CC(=O)O)NC(=O)[C@H](CCCCN)NC(=O)[C@@H](N)CC(=O)O)C(C)C)C(C)C)C(C)C)C(=O)N[C@H](C(=O)N[C@H](C(=O)N[C@@H](C)C(=O)O)C(C)C)[C@@H](C)O` [S100A1ct6/11, D-K-D-D-P-P-Y-V-V-L-V-A-A-L-T-V-A] (H-DKDDPPYVVLVAALTVA-OH; N-terminus and C-terminus assumed) was tested, and the “ability to permeate the cell membrane of intact cardiomyocytes” value [1] was “cell permeable” and the EC50 [2] was 87 ± 6 nM.

For “D-K-D-D-P-P (DKDDPP; hydrophilic motif) [linker, reference compound]”, the “effect on calcium transient amplitudes” value [2] was “do not exhibit the inotropic effect”.

For “D-K-D-D-P-P-V-V-L-V-A-A-L-T-V-A (DKDDPPVVLVAALTVA; amino acids 76 to 85 of human S100A1 fused to a hydrophilic motif) [N-76-85-C, amino acids 76 to 85 of human S100A1 fused to a hydrophilic linker (D-K-D-D-P-P)]”, the “effect on calcium transient amplitudes” value ([2]; listed as peptide consisting of amino acids 76 to 85 of human S100A1 fused to a hydrophili) was “exerts the same inotropic function as the S100A1ct6/11 peptide”.

For “DKDDPP-FMAFVAMVTTA (DKDDPPFMAFVAMVTTA; amino acids 75 to 85 of S100B fused to a hydrophilic motif) [amino acids 75-85 of S100B fused to a hydrophilic motif, reference compound]”, the “inotropic effect (calcium transients)” value [2] was “fail to reproduce S100A1ct6/11 inotropic actions” and the “inotropic effect (calcium transients) under βAR stimulation” value [2] was “neither S100A4ct nor S100Bct mimic S100A1ct6/11 inotropic effects”.

With “DKDDPP-YCVFLSCIAMM (DKDDPPYCVFLSCIAMM; amino acids 75 to 85 of S100A4 fused to a hydrophilic motif) [amino acids 75-85 of S100A4 fused to a hydrophilic motif, reference compound]” the “inotropic effect (calcium transients)” value [2] was “fail to reproduce S100A1ct6/11 inotropic actions” and the “inotropic effect (calcium transients) under βAR stimulation” value [2] was “neither S100A4ct nor S100Bct mimic S100A1ct6/11 inotropic effects”.

With “N-77-85-C: amino acids 77 to 85 of human S100A1 protein set forth in SEQ ID NO: 1 (VLVAALTVA; listed as Homo sapiens)” the “effect on calcium transient amplitudes” value [2] was “abolishes the inotropic effect”.

With “N-78-85-C: amino acids 78 to 85 of human S100A1 protein set forth in SEQ ID NO: 1 (LVAALTVA; listed as Homo sapiens)” the “effect on calcium transient amplitudes” value [2] was “abolishes the inotropic effect”.

In the case of “N-79-85-C: amino acids 79 to 85 of human S100A1 protein set forth in SEQ ID NO: 1 (VAALTVA; listed as Homo sapiens)”, the “effect on calcium transient amplitudes” value [2] is reported as “abolishes the inotropic effect”.

For “S100A1 C-terminal 20-mer peptide fused to a hydrophilic linker: amino acids 75 to 94 of human S100A1 fused to D-K-D-D-P-P (SEQ ID NO: 354) (YVVLVAALTVACNNFFWENS; also: fused to hydrophilic linker D-K-D-D-P-P, end not given here; UniProt P23297 75-94, looked up, fragment) [reference compound]”, the “diastolic calcium spark frequency” value [3] was “decrease calcium spark frequency”.

B1: S100A1 protein: native human S100A1 protein, 94 amino acids, SEQ ID NO: 1 (protein, listed as Homo sapiens)
chain: MGSELETAMETLINVFHAHSGKEGDKYKLSKKELKELLQTELSGFLDAQKDVDAVDKVMKELDENGDGEVDFQEYVVLVAALTVACNNFFWENS
B1 was tested, and the RyR2 activity [3] was “decreases”, the “diastolic calcium spark frequency” value [3] was “decrease calcium spark frequency; also recorded: decreases” and the isometric twitch force [4] was “enhances; also recorded: equivalent biological potency to enhance isometric force”. The isometric twitch force ([4]; listed as full-length S100A1 protein) was “has a potency to enhance isometric twitch force”, the calcium homeostasis [5] was “does not alter” and the calcium homeostasis (skeletal muscle fibers) was “does not alter”.
